We go through six compounds from US8933039B2 (NPS Pharmaceuticals, Inc., priority 1995, dated 2015).

One series concerns CD1 mice. The experiment in a line: Intestinotrophic activity assessment: small bowel weight in mice. In kind it is in vivo. Conditions: for % Increase in small bowel weight: CD1 mice, 2.5 μg peptide s.c. b.i.d. in PBS, sacrificed 10 or 14 days, relative to vehicle only; for % Activity (small bowel inducing activity relative to native rat GLP-2(1-33) = 100%): mice, as Example 4; for intestinotrophic activity compared with the naturally occurring molecule / rGLP-2 (in words): comment on Table 1, CD1 mice. Summed up:
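Female CD1 mice, 6 weeks old (n=3-4/group), given 2.5 μg peptide s.c. b.i.d. in PBS; sacrificed 10 or 14 days later after ≥20 h fast. Small bowel (pylorus to cecum) weighed; percent change versus vehicle mice, also expressed relative to rat GLP-2(1-33) set as 100%.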

Series [1] deals with T1, DPP-IV (Homo sapiens, UniProt P27487). The experiment in a line: Assay for resistance to dipeptidyl peptidase IV (RP-HPLC of cleavage product). Particulars: human, isolated human placental DPP-IV (dipeptidyl peptidase IV).
T1 sequence (P27487 whole entry): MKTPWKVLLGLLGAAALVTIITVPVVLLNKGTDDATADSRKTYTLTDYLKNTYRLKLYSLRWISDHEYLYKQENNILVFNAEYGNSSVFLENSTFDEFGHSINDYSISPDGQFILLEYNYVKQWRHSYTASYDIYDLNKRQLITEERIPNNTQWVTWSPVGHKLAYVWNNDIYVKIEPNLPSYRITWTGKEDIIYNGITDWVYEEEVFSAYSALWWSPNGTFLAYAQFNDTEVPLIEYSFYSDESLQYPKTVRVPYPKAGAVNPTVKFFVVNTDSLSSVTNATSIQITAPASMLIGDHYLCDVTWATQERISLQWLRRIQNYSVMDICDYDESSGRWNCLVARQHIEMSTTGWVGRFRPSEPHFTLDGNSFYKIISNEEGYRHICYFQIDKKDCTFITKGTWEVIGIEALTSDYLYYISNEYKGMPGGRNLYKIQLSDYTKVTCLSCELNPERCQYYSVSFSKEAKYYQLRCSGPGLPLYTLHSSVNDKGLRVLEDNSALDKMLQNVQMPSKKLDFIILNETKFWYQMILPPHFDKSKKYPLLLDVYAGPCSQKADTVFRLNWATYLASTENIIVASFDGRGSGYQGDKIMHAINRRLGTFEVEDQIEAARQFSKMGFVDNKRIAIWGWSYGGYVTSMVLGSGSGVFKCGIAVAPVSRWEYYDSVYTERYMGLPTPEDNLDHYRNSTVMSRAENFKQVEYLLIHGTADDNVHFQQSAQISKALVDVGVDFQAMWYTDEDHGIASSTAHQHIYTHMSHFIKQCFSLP
Procedure: (§3) The mixture was incubated at 37° C. in a circulating water bath for 24 hours. The incubation was quenched by the addition of 50 μl of a solution of diprotin A prepared at a concentration of 4 mg/ml in PBS. Each peptide was tested in duplicate.
(§4) Each sample was analyzed by reverse-phase (RP) HPLC as follows: 90 μl of the quenched incubation mixture was injected onto a Rainin Dynamax 300 Å, C18, 5 micron, 4.6×250 millimeter column. The samples were eluted with 0.1% trifluoroacetic acid (TFA) in water modified with 0.1% acetonitrile using a linear gradient and a flow rate of 1 ml per minute. Sample components were detected at 214 nanometers (nm). The extent of cleavage was measured by relative integration of the peak corresponding to the cleavage product compared to that of the remaining undigested parent peptide.
For the next series, the target named is human placental DPP-IV (Homo sapiens, UniProt P27487). The series is described as above. Particulars: human placental DPP-IV 0.125 mU, peptide 0.2 mg/ml, PBS pH 7.4, 37° C.
Sequence of human placental DPP-IV (P27487 whole entry): as above
The target in series [2] is T1, DPP-IV. Description: in vitro. Particulars: isolated enzyme dpp iv, pH 7.4, % Cleaved by DPP-IV.
Procedure: as §3, §4
The next series relates to Sprague-Dawley rats. Description: Small bowel weight in normal Sprague-Dawley rats. Type of series: in vivo. Conditions: gelatin formulation, vs vehicle. As to the method:
(§1) The following experiments were conducted to confirm that the increase in bowel weight seen in experimental animals treated with DPP-IV resistant analogs of GLP-2, compared with animals treated with wild-type GLP-2, was attributable in part to the DPP-IV resistant nature of the molecules. This experiment took advantage of the availability of a DPP-IV deficient rat strain, Fisher 334 DPP-IV-rats. The effect of rGLP-2 injections on small bowel weight in the Fisher DPP-IV deficient rats was compared to that in normal Sprague-Dawley rats.
(§2) In the following experiments the Sprague-Dawley rats were injected s.c. twice daily with rGLP-2 in the Gelatin formulation. The Fisher rats were injected s.c. twice daily with GLP-2 peptides (both rGLP-2, and rGLP-2 analogs) in PBS.

For a further series, the system named is Fisher 334 DPP-IV-rats. Description: Small bowel weight in DPP-IV deficient Fisher rats. In kind it is in vivo. Particulars: 20 μg b.i.d. s.c. in PBS, vs vehicle. Here is the method:
as §1, §2

Series [3] deals with Fisher 344 wild-type rats. The experiment in a line: Small bowel weight in Fisher 344 wild-type rats. Type of series: in vivo. Conditions: 20 μg b.i.d. s.c. in PBS, over vehicle control. As to the method: as §2
The subject of series [4] is dipeptidyl peptidase IV (DPP-IV). The experiment in a line: human placental DPP-IV (Calbiochem), 0.125 mU, added to test peptide in PBS at pH 7.4. Conditions: 37° C., up to 24 hours.
Where [5] appears, read: pH 7.4, % Cleaved by DPP-IV, as Example 3: human placental DPP-IV, 37° C., PBS pH 7.4.

Non-standard residues stand in square brackets, D forms with d. Residues, ends and D or L forms follow the SMILES beside them. Tle = CC(C)(C)[C@H](N)C(=O)O; βAla = NCCC(=O)O

As for `CC[C@H](C)[C@H](NC(=O)[C@H](Cc1ccccc1)NC(=O)[C@H](CC(=O)O)NC(=O)[C@H](CCCNC(=N)N)NC(=O)[C@@H](NC(=O)[C@H](C)NC(=O)[C@H](CC(C)C)NC(=O)[C@H](CC(N)=O)NC(=O)[C@H](CC(=O)O)NC(=O)[C@H](CC(C)C)NC(=O)[C@@H](NC(=O)[C@@H](NC(=O)[C@H](CC(N)=O)NC(=O)[C@H](CCSC)NC(=O)[C@H](CCC(=O)O)NC(=O)[C@H](CC(=O)O)NC(=O)[C@H](CO)NC(=O)[C@H](Cc1ccccc1)NC(=O)[C@H](CO)NC(=O)CNC(=O)[C@H](CC(=O)O)NC(=O)[C@@H](C)NC(=O)[C@@H](N)Cc1c[nH]cn1)[C@@H](C)O)[C@@H](C)CC)[C@@H](C)O)C(=O)N[C@@H](CC(N)=O)C(=O)N[C@@H](Cc1c[nH]c2ccccc12)C(=O)N[C@@H](CC(C)C)C(=O)N[C@H](C(=O)N[C@@H](CCC(N)=O)C(=O)N[C@H](C(=O)N[C@@H](CCCCN)C(=O)N[C@H](C(=O)N[C@H](C(=O)N[C@@H](CC(=O)O)C(=O)O)[C@@H](C)O)[C@@H](C)CC)[C@@H](C)O)[C@@H](C)CC` [[DAla2]ratGLP-2(1-33)] (H-H[dA]DGSFSDEMNTILDNLATRDFINWLIQTKITD-OH), in the series on CD1 mice, the “% Increase in small bowel weight” value was 86% and the “% Activity (small bowel inducing activity relative to native rat GLP-2(1-33) = 100%)” value is 210%. This compound displayed a metabolised at 24 h, 0.19 mg/ml at DPP-IV [1] (setting [5]) of 0%. The “cleaved by DPP-IV after the 24 hour incubation” value on human placental DPP-IV is reported as “No cleavage products were detected”.
On to `CC[C@H](C)[C@H](NC(=O)[C@H](Cc1ccccc1)NC(=O)[C@H](CC(=O)O)NC(=O)[C@H](CCCNC(=N)N)NC(=O)[C@H](C)NC(=O)[C@H](C)NC(=O)[C@H](CC(C)C)NC(=O)[C@H](CC(N)=O)NC(=O)[C@H](CC(=O)O)NC(=O)[C@H](CC(C)C)NC(=O)[C@@H](NC(=O)[C@@H](NC(=O)[C@H](CC(N)=O)NC(=O)[C@H](CCSC)NC(=O)[C@H](CCC(=O)O)NC(=O)[C@H](CC(=O)O)NC(=O)[C@H](CO)NC(=O)[C@H](Cc1ccccc1)NC(=O)[C@H](CO)NC(=O)CNC(=O)[C@H](CC(=O)O)NC(=O)CNC(=O)[C@@H](N)Cc1c[nH]cn1)[C@@H](C)O)[C@@H](C)CC)C(=O)N[C@@H](CC(N)=O)C(=O)N[C@@H](Cc1c[nH]c2ccccc12)C(=O)N[C@@H](CC(C)C)C(=O)N[C@H](C(=O)N[C@@H](CCC(N)=O)C(=O)N[C@H](C(=O)N[C@@H](CCCCN)C(=O)N[C@H](C(=O)N[C@H](C(=O)N[C@@H](CC(=O)O)C(=O)O)[C@@H](C)O)[C@@H](C)CC)[C@@H](C)O)[C@@H](C)CC` [[Gly2]hGLP-2(1-33)], for which, in the series on CD1 mice, the “% Increase in small bowel weight” value is 59%, the “intestinotrophic activity compared with the naturally occurring molecule / rGLP-2 (in words)” value was “substantially increased” and the “% Activity (small bowel inducing activity relative to native rat GLP-2(1-33) = 100%)” value turned out to be 300%. The compound further had a metabolised at 24 h, 0.19 mg/ml at DPP-IV [2] of 0%.
“H-HADGSFSDEMNTILDNLATRDFINWLIQTKITD-OH [ratGLP-2(1-33), reference compound]”: the “% Increase in small bowel weight” value in the series with CD1 mice is listed as 45%. In addition, the “% Activity (small bowel inducing activity relative to native rat GLP-2(1-33) = 100%)” value with CD1 mice stood at 100%. Besides, the “% change in small bowel weight” value in the series with Sprague-Dawley rats (2.5 μg b.i.d. s.c.) and in the series with Sprague-Dawley rats (25 μg b.i.d. s.c.) was “no % change” in each case. In addition, in the series with Fisher 334 DPP-IV-rats, the “increase in % change in small bowel weight” value is given as 40-50%. Also, the metabolised at 24 h, 0.19 mg/ml at DPP-IV [1] (setting [5]) was determined as 58%; on DPP-IV [1] (pH 7.4, cleaved by DPP-IV after the 24 hour incubation, human placental DPP-IV 0.125 mU, peptide 0.2 mg/ml, PBS pH 7.4, 37° C.), 22%.
For “H-HGDGSFSDEMNTILDNLATRDFINWLIQTKITD-OH [[Gly2]ratGLP-2(1-33)]”, in the series with CD1 mice, the “% Increase in small bowel weight” value is 70%, the “intestinotrophic activity compared with the naturally occurring molecule / rGLP-2 (in words)” value is “greatly enhanced” and the “% Activity (small bowel inducing activity relative to native rat GLP-2(1-33) = 100%)” value is recorded as 196%. Also, the “increase in % change in small bowel weight” value with Fisher 334 DPP-IV-rats is recorded as 50-60%. In addition, the “increase in small bowel weight” value in series [3] is 75-85%. The compound further returned a metabolised at 24 h, 0.19 mg/ml at DPP-IV [1] (setting [5]) of 0%. Also, the “cleaved by DPP-IV after the 24 hour incubation” value on human placental DPP-IV is “No cleavage products were detected”.
In turn, “[bAla2]hGLP-2(1-33) (H-H[βAla]DGSFSDEMNTILDNLAARDFINWLIQTKITD-OH; SMILES CC[C@H](C)[C@H](NC(=O)[C@H](Cc1ccccc1)NC(=O)[C@H](CC(=O)O)NC(=O)[C@H](CCCNC(=N)N)NC(=O)[C@H](C)NC(=O)[C@H](C)NC(=O)[C@H](CC(C)C)NC(=O)[C@H](CC(N)=O)NC(=O)[C@H](CC(=O)O)NC(=O)[C@H](CC(C)C)NC(=O)[C@@H](NC(=O)[C@@H](NC(=O)[C@H](CC(N)=O)NC(=O)[C@H](CCSC)NC(=O)[C@H](CCC(=O)O)NC(=O)[C@H](CC(=O)O)NC(=O)[C@H](CO)NC(=O)[C@H](Cc1ccccc1)NC(=O)[C@H](CO)NC(=O)CNC(=O)[C@H](CC(=O)O)NC(=O)CCNC(=O)[C@@H](N)Cc1c[nH]cn1)[C@@H](C)O)[C@@H](C)CC)C(=O)N[C@@H](CC(N)=O)C(=O)N[C@@H](Cc1c[nH]c2ccccc12)C(=O)N[C@@H](CC(C)C)C(=O)N[C@H](C(=O)N[C@@H](CCC(N)=O)C(=O)N[C@H](C(=O)N[C@@H](CCCCN)C(=O)N[C@H](C(=O)N[C@H](C(=O)N[C@@H](CC(=O)O)C(=O)O)[C@@H](C)O)[C@@H](C)CC)[C@@H](C)O)[C@@H](C)CC)” gave a not cleaved in series [4] of 0% cleaved by DPP-IV.
The compound “[tBuGly2]hGLP-2 (H-H[Tle]DGSFSDEMNTILDNLAARDFINWLIQTKITD-OH; SMILES CC[C@H](C)[C@H](NC(=O)[C@H](Cc1ccccc1)NC(=O)[C@H](CC(=O)O)NC(=O)[C@H](CCCNC(=N)N)NC(=O)[C@H](C)NC(=O)[C@H](C)NC(=O)[C@H](CC(C)C)NC(=O)[C@H](CC(N)=O)NC(=O)[C@H](CC(=O)O)NC(=O)[C@H](CC(C)C)NC(=O)[C@@H](NC(=O)[C@@H](NC(=O)[C@H](CC(N)=O)NC(=O)[C@H](CCSC)NC(=O)[C@H](CCC(=O)O)NC(=O)[C@H](CC(=O)O)NC(=O)[C@H](CO)NC(=O)[C@H](Cc1ccccc1)NC(=O)[C@H](CO)NC(=O)CNC(=O)[C@H](CC(=O)O)NC(=O)[C@@H](NC(=O)[C@@H](N)Cc1c[nH]cn1)C(C)(C)C)[C@@H](C)O)[C@@H](C)CC)C(=O)N[C@@H](CC(N)=O)C(=O)N[C@@H](Cc1c[nH]c2ccccc12)C(=O)N[C@@H](CC(C)C)C(=O)N[C@H](C(=O)N[C@@H](CCC(N)=O)C(=O)N[C@H](C(=O)N[C@@H](CCCCN)C(=O)N[C@H](C(=O)N[C@H](C(=O)N[C@@H](CC(=O)O)C(=O)O)[C@@H](C)O)[C@@H](C)CC)[C@@H](C)O)[C@@H](C)CC)” returned a not cleaved in series [4] of 0% cleaved by DPP-IV.
